Laboratory results: ChEMBL document CHEMBL3826904, “Ionic liquid-promoted multicomponent synthesis of fused tetrazolo[1,5-a]pyrimidines as α-glucosidase inhibitors” (Bioorg Med Chem Lett, 2016)
Calls of active or inactive are those of the source. The calls are words filed in the database; no cut-off is given here.

Assays:
[1] = target: T1, Pancreatic alpha-amylase (Homo sapiens) (UniProt P04746); experiment: Inhibition of pancreatic alpha-amylase (unknown origin) at 5 mM using starch as substrate preincubated for 30 mins followed by substrate addition measured after 10 mins by dinitrosalicylic acid method based microplate reader analysis
T1 sequence (whole entry): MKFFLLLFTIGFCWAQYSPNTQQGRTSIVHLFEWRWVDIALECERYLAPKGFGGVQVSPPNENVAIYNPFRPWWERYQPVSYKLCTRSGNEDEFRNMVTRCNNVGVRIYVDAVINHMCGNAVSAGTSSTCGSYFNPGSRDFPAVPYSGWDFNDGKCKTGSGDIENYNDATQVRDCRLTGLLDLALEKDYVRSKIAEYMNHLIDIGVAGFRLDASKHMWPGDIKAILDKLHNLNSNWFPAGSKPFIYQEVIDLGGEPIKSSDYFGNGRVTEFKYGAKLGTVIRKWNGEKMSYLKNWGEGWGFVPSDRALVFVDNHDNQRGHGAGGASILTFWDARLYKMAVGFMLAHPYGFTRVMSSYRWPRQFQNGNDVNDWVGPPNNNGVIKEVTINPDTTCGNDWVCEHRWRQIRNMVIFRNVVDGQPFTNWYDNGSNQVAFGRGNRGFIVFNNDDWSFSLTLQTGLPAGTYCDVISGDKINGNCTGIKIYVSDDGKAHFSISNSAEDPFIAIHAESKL

[2] = target: Alpha-glucosidase MAL12 (Saccharomyces cerevisiae S288c) (UniProt P53341); experiment: Inhibition of yeast alpha-glucosidase MAL12 at 5 mM using 4-nitrophenyl-alpha-D-glucopyranoside as substrate preincubated for 30 mins followed by substrate addition measured after 10 mins by microplate reader analysis
[3] = target: Alpha-glucosidase MAL12 (Saccharomyces cerevisiae S288c, UniProt P53341); experiment: Inhibition of yeast alpha-glucosidase MAL12 using 4-nitrophenyl-alpha-D-glucopyranoside as substrate preincubated for 30 mins followed by substrate addition measured after 10 mins by microplate reader analysis
Chain of Alpha-glucosidase MAL12 (P53341 whole entry): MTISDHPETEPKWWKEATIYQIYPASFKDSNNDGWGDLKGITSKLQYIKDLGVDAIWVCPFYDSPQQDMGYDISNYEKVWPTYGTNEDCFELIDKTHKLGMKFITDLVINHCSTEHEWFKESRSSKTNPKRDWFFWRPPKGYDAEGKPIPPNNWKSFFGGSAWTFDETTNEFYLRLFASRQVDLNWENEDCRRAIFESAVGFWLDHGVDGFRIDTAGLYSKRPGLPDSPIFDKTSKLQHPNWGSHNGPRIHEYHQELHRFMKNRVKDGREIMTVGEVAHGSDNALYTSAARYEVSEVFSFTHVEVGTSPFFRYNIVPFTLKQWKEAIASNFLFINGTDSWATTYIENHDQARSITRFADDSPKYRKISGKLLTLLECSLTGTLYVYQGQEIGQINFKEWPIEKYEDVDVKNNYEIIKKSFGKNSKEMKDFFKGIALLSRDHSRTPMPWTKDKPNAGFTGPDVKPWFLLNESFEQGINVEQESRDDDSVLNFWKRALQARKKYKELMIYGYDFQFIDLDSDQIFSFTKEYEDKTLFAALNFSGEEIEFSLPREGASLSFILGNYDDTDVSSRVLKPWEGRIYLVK

Chain of Alpha-glucosidase MAL12 (Saccharomyces cerevisiae S288c) (P53341 whole entry): as above

SMILES | inhibition [1] | inhibition [2] | IC50 [3]
Brc1ccc(-c2ccnc3nnnn23)cc1 | inactive | Active | 
Cc1ccc(-c2ccnc3nnnn23)cc1 | inactive | Active | 49.8 µM
COc1ccc(-c2ccnc3nnnn23)cc1 | inactive | Active | 85.7 µM
O=c1oc2ccccc2cc1-c1ccnc2nnnn12 | inactive | Active | 446 µM
c1ccc(-c2ccnc3nnnn23)cc1 | inactive | Active | 422 µM
O=[N+]([O-])c1ccc(-c2ccnc3nnnn23)cc1 | inactive | Active | 308 µM
Fc1ccc(-c2ccnc3nnnn23)cc1 | inactive | Active | 178 µM
c1csc(-c2ccnc3nnnn23)c1 | inactive | Active | 1010 µM
c1ccc(-c2ccnc3nnnn23)nc1 | inactive | Active | 591 µM
c1ccc2oc(-c3ccnc4nnnn34)cc2c1 | inactive | Active | 
Oc1ccccc1-c1ccnc2nnnn12 | inactive | Active | 1740 µM
Clc1ccc(-c2ccnc3nnnn23)cc1 | inactive | Active | 421 µM
